Assay results as given in patent US20120264735A1 (priority 2009, published 2012).

What follows are compounds tested against T1, c-Met kinase (recombinant c-Met) (Homo sapiens, UniProt P08581) (assay: In vitro kinase assay I (homogeneous time-resolved fluorescence tyrosine kinase assay)).
T1 construct: 0.27 nM recombinant c-Met
Type: biochemical
Summary of the method: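 Biotinylated peptide (0.5 μM) phosphorylated by 0.2 nM recombinant c-Met with 50 μM MgATP, 60 min at room temperature, pH 7.4, 5% DMSO. EDTA stop; HTRF read with Eu-anti-phosphotyrosine antibody and streptavidin-APC. IC50 from 4-parameter logistic fit.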

T1 sequence (P08581 25-1390): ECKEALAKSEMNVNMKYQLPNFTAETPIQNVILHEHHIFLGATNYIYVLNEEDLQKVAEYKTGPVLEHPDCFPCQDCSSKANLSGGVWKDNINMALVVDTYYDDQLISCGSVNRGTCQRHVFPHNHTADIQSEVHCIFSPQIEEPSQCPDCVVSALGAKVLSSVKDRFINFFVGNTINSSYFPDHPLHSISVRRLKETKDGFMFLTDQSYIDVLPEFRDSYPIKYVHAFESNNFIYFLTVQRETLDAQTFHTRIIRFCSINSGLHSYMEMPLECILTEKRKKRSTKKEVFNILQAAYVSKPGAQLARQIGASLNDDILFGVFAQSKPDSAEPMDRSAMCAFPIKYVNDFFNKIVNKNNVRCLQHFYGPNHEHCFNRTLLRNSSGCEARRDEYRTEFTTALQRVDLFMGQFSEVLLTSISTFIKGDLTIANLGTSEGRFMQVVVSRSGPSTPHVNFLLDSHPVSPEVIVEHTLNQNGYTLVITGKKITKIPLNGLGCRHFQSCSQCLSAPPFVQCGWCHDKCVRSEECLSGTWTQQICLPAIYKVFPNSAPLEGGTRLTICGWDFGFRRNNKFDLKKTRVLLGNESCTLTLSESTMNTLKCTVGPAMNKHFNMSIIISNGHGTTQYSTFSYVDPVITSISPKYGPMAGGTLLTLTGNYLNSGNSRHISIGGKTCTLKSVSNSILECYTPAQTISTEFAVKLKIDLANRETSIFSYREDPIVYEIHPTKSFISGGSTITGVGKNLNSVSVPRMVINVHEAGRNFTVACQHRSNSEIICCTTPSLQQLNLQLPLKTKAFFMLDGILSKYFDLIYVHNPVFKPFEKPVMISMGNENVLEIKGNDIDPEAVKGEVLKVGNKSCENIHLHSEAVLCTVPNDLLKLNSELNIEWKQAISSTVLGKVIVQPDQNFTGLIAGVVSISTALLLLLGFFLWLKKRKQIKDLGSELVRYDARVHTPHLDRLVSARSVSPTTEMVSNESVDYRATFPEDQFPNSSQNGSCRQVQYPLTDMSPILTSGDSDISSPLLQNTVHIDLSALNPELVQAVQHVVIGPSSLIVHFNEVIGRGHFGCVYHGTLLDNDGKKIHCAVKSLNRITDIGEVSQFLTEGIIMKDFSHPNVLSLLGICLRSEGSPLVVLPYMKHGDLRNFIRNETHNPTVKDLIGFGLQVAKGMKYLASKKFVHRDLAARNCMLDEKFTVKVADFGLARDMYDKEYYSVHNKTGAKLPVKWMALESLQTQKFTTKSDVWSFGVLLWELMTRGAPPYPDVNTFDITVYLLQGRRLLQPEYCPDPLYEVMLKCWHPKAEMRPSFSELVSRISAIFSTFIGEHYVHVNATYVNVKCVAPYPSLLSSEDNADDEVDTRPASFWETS

| IC50 [nM] | SMILES |
| --- | --- |
| 100 to 1000 | Cn1cc(-n2ccc(=O)c(Cc3cccc(-c4ncn(CCC#N)n4)c3)n2)cn1 [Example 709, 3-[3-(3-{[1-(1-methyl-1H-pyrazol-4-yl)-4-oxo-1,4-dihydropyridazin-3-yl]methyl}phenyl)-1H-1,2,4-triazol-1-yl]propanenitrile] |
| 100 to 1000 | CN(C)C(=O)CCn1cnc(-c2cccc(Cc3nn(-c4cnn(C)c4)ccc3=O)c2)n1 [Example 710, N,N-dimethyl-3-[3-(3-{[1-(1-methyl-1H-pyrazol-4-yl)-4-oxo-1,4-dihydropyridazin-3-yl]methyl}phenyl)-1H-1,2,4-triazol-1-yl]propanamide] |
| < 100 | Cn1cc(-n2ccc(=O)c(Cc3cccc(-c4ncn(CC(F)(F)CN5CCOCC5)n4)c3)n2)cn1 [Example 712, 3-{3-[1-(2,2-difluoro-3-morpholin-4-ylpropyl)-1H-1,2,4-triazol-3-yl]benzyl}-1-(1-methyl-1H-pyrazol-4-yl)pyridazin-4(1H)-one] |
| 100 to 1000 | Cn1cc(-n2ccc(=O)c(Cc3cccc(-c4ncn(CC5(C)COC5)n4)c3)n2)cn1 [Example 713, 3-(3-{1-[(3-methyloxetan-3-yl)methyl]-1H-1,2,4-triazol-3-yl}benzyl)-1-(1-methyl-1H-pyrazol-4-yl)pyridazin 4(1H)-one] |
| 100 to 1000 | Cn1cc(-n2ccc(=O)c(Cc3cccc(-c4ncn(CCS(C)(=O)=O)n4)c3)n2)cn1 [Example 714, 1-(1-methyl-1H-pyrazol-4-yl)-3-(3-{1-[2-(methylsulfonyl)ethyl]-1H-1,2,4-triazol-3-yl}benzyl)pyridazin-4(1H)-one] |
| 100 to 1000 | Cn1cc(-n2ccc(=O)c(Cc3cccc(-c4ncn(CCc5ccccc5)n4)c3)n2)cn1 [Example 715, 1-(1-methyl-1H-pyrazol-4-yl)-3-{3-[1-(2-phenylethyl)-1H-1,2,4-triazol-3-yl]benzyl}pyridazin-4(1H)-one] |
| 100 to 1000 | CCOCCn1cnc(-c2cccc(Cc3nn(-c4cnn(C)c4)ccc3=O)c2)n1 [Example 716, 3-{3-[1-(2-ethoxyethyl)-1H-1,2,4-triazol-3-yl]benzyl}-1-(1-methyl-1H-pyrazol-4-yl)pyridazin 4(1H)-one] |
| 100 to 1000 | Cn1cc(-n2ccc(=O)c(Cc3cccc(-c4ncn(CCN5CCCC5=O)n4)c3)n2)cn1 [Example 718] |
| < 100 | COC(C)(C)Cn1cnc(-c2cccc(Cc3nn(-c4cnn(C)c4)ccc3=O)c2)n1 [Example 719, 3-{3-[1-(2-methoxy-2-methylpropyl)-1H-1,2,4-triazol-3-yl]benzyl}-1-(1-methyl-1H-pyrazol-4-yl)pyridazin-4(1H)-one] |
| < 100 | Cn1cc(-n2ccc(=O)c(Cc3cccc(-c4ncn(CCCC5OCC(C)(C)CO5)n4)c3)n2)cn1 [Example 720, 3-(3-{1-[3-(5,5-dimethyl-1,3-dioxan-2-yl)propyl]-1H-1,2,4-triazol-3-yl}benzyl)-1-(1-methyl-1H-pyrazol-4-yl)pyridazin-4(1H)-one] |
| < 100 | CCOc1cnc(-c2cccc(Cc3nn(-c4ccc(C(=O)NCCO)c(F)c4)ccc3=O)c2)nc1 [Example 722, 4-{3-[3-(5-Ethoxypyrimidin-2-yl)benzyl]-4-oxopyridazin-1(4H)-yl}-2-fluoro-N-(2-hydroxyethyl)benzamide] |
| < 100 | CCOc1cnc(-c2cccc(Cc3nn(-c4ccc(C(=O)NC)c(F)c4)ccc3=O)c2)nc1 [Example 723] |
| < 100 | CCOc1cnc(-c2cccc(Cc3nn(-c4ccc(C(=O)NCC(C)(C)O)c(F)c4)ccc3=O)c2)nc1 [Example 724, 4-{3-[3-(5-ethoxypyrimidin-2-yl)benzyl]-4-oxopyridazin-fluoro-N-(2-1(4H)-yl}-2-hydroxy-2-methylpropyl) benzamide] |
| < 100 | CCOc1cnc(-c2cccc(Cc3nn(-c4cccc(F)c4)ccc3=O)c2)nc1 [Example 725, 3-(3-(5-Ethoxypyrimidin-2-yl)benzyl)-1-(3-fluorophenyl)pyridazin-4(1H)-one] |
| 100 to 1000 | CCOc1cnc(-c2cccc(Cc3nn(-c4cccc(C(=O)N(C)C)c4)ccc3=O)c2)nc1 [Example 726, 3-{3-[3-(5-Ethoxypyrimidin-2-yl)benzyl]-4-oxopyridazin-1(4H)-yl}-N,N-dimethylbenzamide] |
| < 100 | CC(C)COC(=O)Nc1cccc(Cc2nn(-c3ccc(-c4cccnc4)cc3)ccc2=O)c1 [Example 727, 2-Methylpropyl[3-({4-oxo-1-[4-(pyridin-3-yl)phenyl]-1,4-dihydropyridazin-3-yl}methyl)phenyl]carbamate] |
| < 100 | CC(C)COC(=O)Nc1cccc(Cc2nn(-c3ccc(-c4ccncc4)cc3)ccc2=O)c1 [Example 728, 2-methylpropyl (3-({4-oxo-1-(4-(pyridin-4-yl)phenyl)-1,4-dihydropyridazin-3-yl}methyl}phenyl) carbamate] |
| 100 to 1000 | CC(C)COC(=O)Nc1cccc(Cc2nn(-c3cccc(-c4cnn(C)c4)c3)ccc2=O)c1 [Example 729, 2-methylpropyl [3-({1-[3-(1-methyl-1H-pyrazol-4-yl)phenyl]-4-oxo-1,4-dihydropyridazin-3-yl}methyl)phenyl] carbamate] |

| IC50 [nM] | SMILES |
| --- | --- |
| 100 to 1000 | CC(C)COC(=O)Nc1cccc(Cc2nn(-c3cccc(-c4ccncc4)c3)ccc2=O)c1 [Example 730, 2-methylpropyl (3-{[4-oxo-1-(3-pyridin-4-ylphenyl)-1,4-dihydropyridazin-3-yl]methyl}phenyl) carbarnate] |
| < 100 | CC(C)COC(=O)Nc1cccc(Cc2nn(-c3ccc(-c4cn[nH]c4)cc3)ccc2=O)c1 [Example 731, 2-methylpropyl [3-({4-oxo-1-[4-(1H-pyrazol-4-yl)phenyl]-1,4-dihydropyridazin-3-yl}methyl)phenyl] carbamate] |
| 100 to 1000 | CC(C)COC(=O)Nc1cccc(Cc2nn(-c3ccc(-c4cnn(C)c4)cc3)ccc2=O)c1 [Example 732, 2-methylpropyl [3-({1-[4-(1-methyl-1H-pyrazol-4-yl)phenyl]-4-oxo-1,4-dihydropyridazin-3-yl}methyl)phenyl] carbamate] |
| < 100 | COc1cnc(-c2cccc(Cc3nn(-c4cncc(C#N)c4)ccc3=O)c2)nc1 [Example 733, 5-{3-[3-(5-Methoxypyrimidin-2-yl)benzyl]-4-oxopyridazin-1(4h)-yl}pyridine-3-carbonitrile] |
| < 100 | CCn1cnc(-c2cccc(Cc3nn(-c4cccc(C(N)=O)c4)ccc3=O)c2)n1 [Example 734, 3-{3-[3-(1-Ethyl-1H-1,2,4-triazol-3-yl)benzyl]-4-oxopyridazin-1(4H)-yl}benzamide] |
| 100 to 1000 | CCCn1cnc(-c2cccc(Cc3nn(-c4cccc(C(N)=O)c4)ccc3=O)c2)n1 [Example 735, 3-{4-oxo-3-[3-(1-propyl-1H-1,2,4-triazol-3-yl)benzyl]pyridazin-1(4H)-yl}benzamide] |
| < 100 | CCOc1cnc(-c2cccc(Cc3nn(-c4cccc(C(N)=O)c4)ccc3=O)c2)nc1 [Example 736, 3-[3-[3-(5-ethoxypyrimidin-2-yl)benzyl]-4-oxopyridazin-1(4H)-yl]benzamide] |
| < 100 | COCCOC(=O)Nc1cccc(Cc2nn(-c3cc(F)cc(C(N)=O)c3)ccc2=O)c1 [Example 737, 2-methoxyethyl [3-({1-[3-(aminocarbonyl)-5-fluorophenyl]-4-oxo-1,4-dihydropyridazin-3-yl}methyl)phenyl] carbamate] |
| < 100 | CCc1nc(-c2cccc(Cc3nn(-c4cnn(C)c4)ccc3=O)c2)no1 [Example 739, 3-[3-(5-Ethyl-1,2,4-oxadiazole-3-yl)benzyl]-1-(1-methyl-1H-pyrazol-4-yl)pyridazin-4(1H)-one] |
| < 100 | CCCc1nc(-c2cccc(Cc3nn(-c4cnn(C)c4)ccc3=O)c2)no1 [Example 740, 1-(1-methyl-1H-pyrazol-4-yl)-3-[3-(5-propyl-1,2,4-oxadiazol-3-yl)benzyl]pyridazin-4(1H)-one] |
| 100 to 1000 | CCCCc1nc(-c2cccc(Cc3nn(-c4cnn(C)c4)ccc3=O)c2)no1 [Example 741, 3-[3-(5-butyl-1,2,4-oxadiazol-3-yl)benzyl]-1-(1-methyl-1H-pyrazol-4-yl)pyridazin 4(1H)-one] |
| 100 to 1000 | CC(C)Cc1nc(-c2cccc(Cc3nn(-c4cnn(C)c4)ccc3=O)c2)no1 [Example 742, 3-{3-[5-(2-methylpropyl)-1,2,4-oxadiazol-3-yl]benzyl}-1-(1-methyl-1H-pyrazol-4-yl)pyridazin-4(1H)-one] |
| 100 to 1000 | Cn1cc(-n2ccc(=O)c(Cc3cccc(-c4noc(CN5CCOCC5)n4)c3)n2)cn1 [Example 743, 1-(1-methyl-1H-pyrazol-4-yl)-3{3-[5-(morpholin-4-ylmethyl)-1,2,4-oxadiazol-3-yl]benzyl}pyridazin-4(1H)-one] |
| 100 to 1000 | COCCc1nc(-c2cccc(Cc3nn(-c4cnn(C)c4)ccc3=O)c2)no1 [Example 744, 3-{3-[5-(2-methoxyethyl)-1,2,4-oxadiazol-3-yl]benzyl}-1-(1-methyl-1H-pyrazol-4-yl)pyridazin-4(1H)-one] |
| 100 to 1000 | Cn1cc(-n2ccc(=O)c(Cc3cccc(-c4noc(CC5COC5)n4)c3)n2)cn1 [Example 745, 1-(1-methyl-1H-pyrazol-4-yl)-3-{3-[5-(oxetan-3-ylmethyl)-1,2,4-oxadiazol-3-yl]benzyl}pyridazin-4(1H)-one] |
| 100 to 1000 | Cn1cc(-n2ccc(=O)c(Cc3cccc(-c4noc(CC5CCOCC5)n4)c3)n2)cn1 [Example 746] |
| < 100 | Cn1cc(-n2ccc(=O)c(Cc3cccc(-c4ncc(O[C@H]5CC[C@H](O)CC5)cn4)c3)n2)cn1 [Example 747, 3-(3-{5-[(trans-4-hydroxycyclohexyl)oxy]pyrimidin-2-yl}benzyl)-1-(1-methyl-1H-pyrazol-4-yl)pyridazin-4(1H)-one] |
| < 100 | Cn1cc(-n2ccc(=O)c(Cc3cccc(-c4ncc(O[C@H]5CC[C@@H](O)CC5)cn4)c3)n2)cn1 [Example 748, 3-(3-{5-[(cis-4-hydroxycyclohexyl)oxy]pyrimidin-2-yl}benzyl)-1-(1-methyl-1H-pyrazol-4-yl)pyridazin-4(1H)-one] |
